Measurements as given in paper PMC11125646 (Viruses, 2024).
Read-outs that look alike come from different tables or passages of the source.

Key:
[1] = Cytotoxicity in Vero-76 cells (MTT); conditions: African green monkey (Cercopithecus aethiops); for CC50: Vero-76 cells
[2] = tested on: hCoV OC43; assay: Inhibition of OC43-induced cytopathogenicity in Vero-76 cells (MTT); assay type: cell-based
[3] = tested on: hCoV-229E; assay: microbe, parasite or virus in culture; assay type: cell-based; conditions: for EC50: Human coronavirus 229E
[4] = Cytotoxicity in SK-MES-1 cells (MTT); assay type: cell-based; conditions: human
[5] = tested on: SARS-CoV-2; assay type: cell-based
[6] = in vitro; conditions: African green monkey (Cercopithecus aethiops)
[7] = tested on: OC43; assay: Cell pretreatment assay (OC43, Vero-76); assay type: cell-based, hCoV-OC43; conditions: 2 h pre-treatment, 50, 20, 4, 0.8 μM, viability after six days
[8] = tested on: EV-A71; assay: Inhibition of EVA71-induced cytopathogenicity (MTT); assay type: cell-based; conditions: Enterovirus A, 50% protection from EVA71-induced cytopathogenicity
[9] = tested on: Vero-76 cells
[10] = Cytotoxicity in Caco-2 cells (MTT); assay type: cell-based, human; conditions: human, MTT; for CC50 at 24 h: Caco-2, 24 h; for CC50 at 72 h: Caco-2, 72 h
[11] = tested on: Mpro of SARS-CoV-2; design: method as in earlier work; conditions: ref [41]; cited from earlier work
[12] = tested on: hCoV-229E; design: method as in earlier work; conditions: Huh-7 cells; ref [41]; read-out: EC50, replication of HCoV-229E in Huh-7 cells; cited from earlier work
[13] = tested on: OC43; assay: Adsorption assay (OC43, Vero-76); conditions: virus and cells incubated at 4 °C in presence of compound
[14] = tested on: OC43; assay: OC43 yield reduction assay in Vero-76 cells; assay type: cell-based, hCoV-OC43
[15] = tested on: Caco-2 cells; assay: Cytotoxicity in Caco-2 cells (MTT); assay type: cell-based, human
[16] = tested on: OC43; assay: OC43 virucidal activity assay; assay type: cell-based, hCoV-OC43; conditions: 0 °C and 37 °C, before cell infection
[17] = Betacoronavirus 1, OC43, Vero 76, cinnamic acids, read-out: OC43 EC50 (Table S1)
[18] = SK-MES-1, cinnamic acids, read-out: 229E EC50 (Table S1)
[19] = Betacoronavirus 1, 50% protection of Vero-76 cells from OC43-induced cytopathogenicity, MTT, read-out: OC43 EC50
[20] = 50% protection of SK-MES-1 cells from 229E-induced cytopathogenicity, MTT, read-out: 229E EC50

O=C(O)/C=C/c1ccc(O)cc1 [Compound A3]
CC50 [1]: > 100 µM
EC50 [2, 17]: > 100 µM

COc1cc(/C=C/C(=O)O)cc(OC)c1O [Compound A7, sinapic acid]
CC50 [1]: 44 µM
EC50 [3, 18]: > 100 µM
activity against OC43 (words) [2]: no anti-beta coronavirus activity
EC50 [2, 17]: > 44 µM
CC50 ([4]; cinnamic acids, read-out: SK-MES-1 CC50 (Table S1)): > 100 µM
activity against SARS-CoV-2 (words) [5]: no anti-beta coronavirus activity

COc1ccc(/C=C/C(=O)Oc2cc(O)c3c(=O)c(O)c(-c4ccc(O)c(O)c4)oc3c2)cc1OC [Compound 1]
CC50 at 120 h [6]: 54.7 µM
activity against OC43 (words) [2]: no activity
EC50 [2, 19]: > 54.7 µM
activity against SARS-CoV-2 (words) [5]: no activity

CCC(CC)COC(=O)[C@H](C)N[P@](=O)(OC[C@H]1O[C@@](C#N)(c2ccc3c(N)ncnn23)[C@H](O)[C@@H]1O)Oc1ccccc1 [Remdesivir, reference compound]
CC50 at 120 h [6]: > 100 µM
EC50 [3, 20]: 5 ± 1 µM
CC50 at 48 h [4]: > 100 µM

O=C(/C=C/c1ccccc1O)Oc1cc(O)c2c(=O)c(O)c(-c3ccc(O)c(O)c3)oc2c1 [Compound 4]
CC50 at 120 h [6]: 78 µM
EC50 [2, 19]: > 78 µM

O=C(/C=C/c1ccc(O)c(O)c1)Oc1cc(O)c2c(=O)c(O)c(-c3ccc(O)c(O)c3)oc2c1 [Compound 8]
CC50 at 120 h [6]: 70 µM
EC50 [3, 20]: > 100 µM
EC50 [2, 19]: 15 µM
CC50 at 48 h [4]: > 100 µM
activity against SARS-CoV-2 (words) [5]: showed activity

O=C(/C=C/c1ccc2c(c1)OCO2)Oc1cc(O)c2c(=O)c(O)c(-c3ccc(O)c(O)c3)oc2c1 [Compound 6]
CC50 at 120 h [6]: 30 µM
EC50 [3, 20]: > 33 µM
EC50 [2, 19]: 2.4 ± 0.56 µM
CC50 at 48 h [4]: 33 µM

CCN(CCO)CCCC(C)Nc1ccnc2cc(Cl)ccc12 (stereo not drawn) [Hydroxychloroquine, reference compound]
CC50 at 120 h [6]: 60 µM
EC50 [2, 19]: 1.9 ± 0.8 µM

O=C(/C=C/c1ccc(O)cc1)Oc1cc(O)c2c(=O)c(O)c(-c3ccc(O)c(O)c3)oc2c1 [Compound 3]
CC50 at 120 h [6]: 60 µM
activity against OC43 (words) [2]: no evidence of activity
EC50 [2, 19]: > 60 µM

O=C(O)/C=C/c1ccc(O)c(O)c1 [Compound A8]
CC50 [6]: > 100 µM
EC50 [3, 18]: > 100 µM
EC50 [2, 17]: > 100 µM
CC50 [4]: > 100 µM

Dextran sulphate [reference compound]
protection of pre-treated Vero-76 monolayers from OC43 infection [7]: failed to inhibit OC43 infection

O=C(O)/C=C/c1ccccc1O [Compound A4]
CC50 [6]: > 100 µM
EC50 [2, 17]: > 100 µM

CCOC(=O)/C=C/[C@H](C[C@@H]1CCNC1=O)NC(=O)[C@@H](CC(=O)[C@@H](NC(=O)c1cc(C)on1)C(C)C)Cc1ccc(F)cc1 [Rupintrivir, reference compound]
CC50 [6]: > 100 µM
EC50 [8]: 0.07 µM

COc1ccc(/C=C/C(=O)O)cc1OC [Compound A1]
CC50 [6]: > 100 µM
EC50 [2, 17]: > 100 µM

O=c1c(O)c(-c2ccc(O)c(O)c2)oc2cc(O)cc(O)c12 [Quercetin, reference compound]
EC50 [8]: > 100 µM
CC50 at 24 h [1]: > 100 µM
CC50 at 72 h [1]: 100 µM
CC50 at 120 h [1]: 20 µM
EC50 [3, 20]: 51 µM
cytotoxicity against Vero-76 cells [9]: No cytotoxicity was detected
activity against OC43 (words) [2]: no activity
EC50 [2, 19]: > 20 µM
activity against OC43 (words) ([2]; listed as quercetin): no anti-beta coronavirus activity
CC50 at 24 h [10]: 88.7 µM
CC50 at 72 h [10]: 61 µM
CC50 at 48 h ([4]; mock-infected SK-MES-1 cells, 48 h post-treatment, MTT, read-out: SK-MES-1 CC50): > 100 µM
activity against SARS-CoV-2 (words) [5]: no activity
activity against SARS-CoV-2 (words) ([5]; listed as quercetin): no anti-beta coronavirus activity
IC50 [11]: 6.79 µM
EC50 [12]: 4.88 µM

COc1cc(/C=C/C(=O)O)ccc1O [Compound A2]
CC50 [6]: > 100 µM
EC50 [2, 17]: > 100 µM

COc1cc(/C=C/C(=O)Oc2cc(O)c3c(=O)c(O)c(-c4ccc(O)c(O)c4)oc3c2)ccc1O [Compound 2]
CC50 at 120 h [6]: 11.4 µM
EC50 [2, 19]: > 11.4 µM

COc1cc(/C=C/C(=O)Oc2cc(O)c3c(=O)c(O)c(-c4ccc(O)c(O)c4)oc3c2)cc(OC)c1O [Compound 7]
CC50 at 24 h [6]: > 100 µM
CC50 at 72 h [6]: > 100 µM
CC50 at 120 h [6]: 100 µM
EC50 [8]: > 100 µM
EC50 [3, 20]: > 100 µM
selectivity index [2]: 15
EC50 [2, 19]: 6.5 ± 0.7 µM
block of OC43 viral binding (adsorption) [13]: efficiently able to block OC43 viral binding
protection of pre-treated Vero-76 monolayers from OC43 infection [7]: failed to inhibit OC43 infection
reduction in the OC43 titer ([14]; 4 µM, Vero-76, m.o.i. 0.1): 2 logs
reduction in the viral titer ([14]; 50, 20, 4 and 0.8 µM, Vero-76): significant dose-dependent reduction
cytotoxicity against Caco-2 cells ([15]; 24 h): No relevant cytotoxicity
cytotoxicity against Caco-2 cells ([15]; 72 h): a slight increase
CC50 at 24 h [10]: > 100 µM
CC50 at 72 h [10]: 70 µM
CC50 at 48 h [4]: > 100 µM
virus titers of treated vs untreated samples (virucidal activity) [16]: did not significantly differ
activity against SARS-CoV-2 (words) [5]: showed activity

O=C(O)/C=C/c1cccc(O)c1 [Compound A5]
CC50 [6]: > 100 µM
EC50 [2, 17]: > 100 µM

O=C(/C=C/c1cccc(O)c1)Oc1cc(O)c2c(=O)c(O)c(-c3ccc(O)c(O)c3)oc2c1 [Compound 5]
CC50 at 120 h [6]: 75 µM
EC50 [2, 19]: > 75 µM

COc1cc(/C=C/C(=O)O)ccc1O [ferulic acid]
activity against 229E [3]: No inhibitory effect
activity against OC43 (words) [2]: No inhibitory effect
activity against SARS-CoV-2 (words) [5]: No inhibitory effect
